In patent publication US20260102407A1, “TREATMENT METHODS” (priority 2020, published 2026):
“And” between values parts separate entries of the source, which are not always exact repeats. Equal entries are not always repeated.

What was measured:
[1] = test system: Brown Norway pigmented rats; experiment: Rat choroidal laser injury model, fluorescein leakage; format: in vivo; conditions: 192 μg IVT, Days 0 and 7, HRA score Days 14 and 21
Excerpt: Rat choroidal laser injury model. Male Brown Norway pigmented rats (8-14 week-old) were anesthetized by an intramuscular injection of Rompun® (xylazine)/Imalgene® (ketamine). Pupils were dilated by instillation of one drop of 0.5% tropicamide before laser burn. Six burns were created in both eyes on Day 0 by applying 170 mW of 532 nm laser light (Viridis laser, Quantel, France) on 75 μm spots around the optic nerve, between the main retinal vessel branches, for 0.1s, through the slit lamp and contact lens. Production of a bubble at the time of laser application confirmed the rupture of Bruch's membrane. Compounds in vehicle (saline containing 0.01% DMSO and 0.5% Tween 80, sonicated) in 2-5 μl were injected IVT on Days 0 and 7 under an operating microscope using a 30G needle mounted on a 100 μl Hamilton syringe. Kenacort was administered IVT into each eye on Day 0. Alternatively, aflibercept/Eylea in vehicle (saline) was injected IVT 6 times (Days 0, 3, 7, 10, 14, 17). […] After anaesthesia, 10% sodium fluorescein (250 μl/100 g body weight) was injected subcutaneously, and ocular fluorescence was recorded 10 min after dye injection. Fluorescein leakage was evaluated on Days 14 and 21 in the angiograms by two examiners masked to the study groups and graded for fluorescein intensity as follows: score 0: no leakage; 1: slightly stained; 2: moderately stained; 3: strongly stained.

[2] = test system: ICAM-1; experiment: Collagen antibody-induced arthritis, hind limb immunohistochemistry for ICAM-1; format: in vivo, mouse; conditions: CAIA mice; Day 14 hind limbs
Description: Collagen antibody-induced arthritis. Arthritis was induced in female Balb/c mice (6-8 week-old) as previously described with a commercially obtained cocktail of 5 monoclonal antibodies to type II collagen at 2 mg/mouse (Chondrex, Inc. Redmond, WA) followed by LPS (50 μg/mouse) with or without BT2 (3 or 30 mg/kg mouse) in DMSO vehicle was administered i.p. on Day 3. Hind footpad thickness was measured on Day 9 using digital calipers. Mice were sacrificed on Day 14 and microCT scanning of hind limbs was performed.
Immmunohistochemical staining of hind limbs for VCAM-1 and ICAM-1 and analysis. Formalin-fixed, paraffin embedded of hind limbs were sectioned (5 μm). Dako EnVision Rabbit Kit (cat. K4011, Dako) was used for immmunohistochemical staining for VCAM-1 and ICAM-1. […] Integrated optical density (IOD) of positive staining in ankle joint (tibia and talus) articular cartilage was assessed for VCAM-1 and ICAM-1 using Image-Pro Plus software (Cybernetics, Bethesda, MD, USA). Area (μm^2) of ankle joint articular cartilage was measured using Image-Pro Plus software. Total cell number and positive staining cell number in ankle joint articular cartilage were counted manually using Image-Pro Plus software. […]

[3] = GLP ocular pharmacokinetics study, single intravitreal injection; format: in vivo; conditions: rabbit, eye, other: intravitreal injection; rabbits; single intravitreal injection 10 μg/50 μl; read-out: ocular half-life (t1/2) (converted)
[4] = test system: Balb/c mice; experiment: Toxicology, histopathology after intraperitoneal, intraarticular or gavage administration; conditions: for Eye (left and right), severity grade / Heart, severity grade / Kidney (left and right): inflammation, renal pelvis, severity grade / Liver: inflammation, peritoneal, severity grade / Liver: mineralisation, subcapsular, severity grade / Lung: osseous metaplasia, severity grade / Spleen, severity grade / Kidney (left and right): inflammation, interstitial, severity grade / Liver: inflammation, parenchymal, severity grade: Mouse 1-5
Description: Toxicology. Female Balb/c mice (8-9 week-old) were given 3 or 30 mg/kg BT2 (DMSO vehicle) via intraperitoneal injection (Days 0 and 5 in DMSO), oral gavage (Days 0-4 in DMSO/methylcellulose) or intraarticular injection (Day 0 in DMSO). Mice were euthanized after 8-11 d. Tissues was fixed in 10% formalin, processed routinely, sectioned at 4 μm and stained with hematoxylin and eosin.

[5] = Gavage BT2 3 mg/kg (Days 0-4), 3 mg/kg
[6] = IA BT2 3 mg/kg (Day 0), 3 mg/kg
[7] = IP BT2 3 mg/kg (Days 0 and 5), 3 mg/kg
[8] = IP BT2 30 mg/kg (Days 0 and 5), 30 mg/kg

CCOC(=O)Nc1ccc2c(c1)C(=O)N(CC)c1ccccc1O2 [BT2, (10-ethyl-11-oxo-10,11-dihydro-dibenzo[b,f][1,4]oxazepin-2-yl)-carbamic acid ethyl ester]
reduction of retinal permeability (fluorescein leakage) [1]: ~50% | ICAM-1 expression in bone [2]: inhibit VCAM-1 and ICAM-1 expression | half-life [3]: 79.2 h | histopathological evidence of toxicity ([4]; Balb/c mice, 3 or 30 mg/kg, intraperitoneal, intraarticular or oral gavage): no histopathological evidence of toxic damage | treated mice whose kidneys contained infrequent inflammatory foci ([4]; Balb/c mice, all BT2 groups, control one of 5): 4 of 30 | Eye (left and right), severity grade ([4]; Gavage BT2 3 mg/kg (Days 0-4)): 0 | Heart, severity grade ([4]; Gavage BT2 3 mg/kg (Days 0-4)): 0 | Kidney (left and right): inflammation, renal pelvis, severity grade ([4]; Gavage BT2 3 mg/kg (Days 0-4)): 0 | Liver: inflammation, peritoneal, severity grade ([4]; Gavage BT2 3 mg/kg (Days 0-4)): 0 | Liver: mineralisation, subcapsular, severity grade ([4]; Gavage BT2 3 mg/kg (Days 0-4)): 0 | Lung: osseous metaplasia, severity grade ([4]; Gavage BT2 3 mg/kg (Days 0-4)): 0 | Spleen, severity grade ([4]; Gavage BT2 3 mg/kg (Days 0-4)): 0 | Kidney (left and right): inflammation, interstitial, severity grade [4, 5]: 0 and 1 | Liver: inflammation, parenchymal, severity grade [4, 5]: 0 and 1 | Eye (left and right), severity grade ([4]; Gavage BT2 30 mg/kg (Days 0-4)): 0 | Heart, severity grade ([4]; Gavage BT2 30 mg/kg (Days 0-4)): 0 | Kidney (left and right): inflammation, interstitial, severity grade ([4]; Gavage BT2 30 mg/kg (Days 0-4)): 0 | Kidney (left and right): inflammation, renal pelvis, severity grade ([4]; Gavage BT2 30 mg/kg (Days 0-4)): 0 | Liver: inflammation, peritoneal, severity grade ([4]; Gavage BT2 30 mg/kg (Days 0-4)): 0 | Liver: mineralisation, subcapsular, severity grade ([4]; Gavage BT2 30 mg/kg (Days 0-4)): 0 | Lung: osseous metaplasia, severity grade ([4]; Gavage BT2 30 mg/kg (Days 0-4)): 0 | Spleen, severity grade ([4]; Gavage BT2 30 mg/kg (Days 0-4)): 0 | Liver: inflammation, parenchymal, severity grade ([4]; Gavage BT2 30 mg/kg (Days 0-4), 30 mg/kg): 1 and 0 | Eye (left and right), severity grade ([4]; IA BT2 3 mg/kg (Day 0)): 0 | Heart, severity grade ([4]; IA BT2 3 mg/kg (Day 0)): 0 | Liver: inflammation, peritoneal, severity grade ([4]; IA BT2 3 mg/kg (Day 0)): 0 | Liver: mineralisation, subcapsular, severity grade ([4]; IA BT2 3 mg/kg (Day 0)): 0 | Lung: osseous metaplasia, severity grade ([4]; IA BT2 3 mg/kg (Day 0)): 0 | Spleen, severity grade ([4]; IA BT2 3 mg/kg (Day 0)): 0 | Kidney (left and right): inflammation, interstitial, severity grade [4, 6]: 0 and 1 | Kidney (left and right): inflammation, renal pelvis, severity grade [4, 6]: 2 and 0 | Liver: inflammation, parenchymal, severity grade [4, 6]: 1 and 0 | Eye (left and right), severity grade ([4]; IA BT2 30 mg/kg (Day 0)): 0 | Heart, severity grade ([4]; IA BT2 30 mg/kg (Day 0)): 0 | Kidney (left and right): inflammation, interstitial, severity grade ([4]; IA BT2 30 mg/kg (Day 0)): 0 | Kidney (left and right): inflammation, renal pelvis, severity grade ([4]; IA BT2 30 mg/kg (Day 0)): 0 | Liver: inflammation, parenchymal, severity grade ([4]; IA BT2 30 mg/kg (Day 0)): 1 | Liver: inflammation, peritoneal, severity grade ([4]; IA BT2 30 mg/kg (Day 0)): 0 | Liver: mineralisation, subcapsular, severity grade ([4]; IA BT2 30 mg/kg (Day 0)): 0 | Lung: osseous metaplasia, severity grade ([4]; IA BT2 30 mg/kg (Day 0)): 0 | Spleen, severity grade ([4]; IA BT2 30 mg/kg (Day 0)): 0 | Eye (left and right), severity grade ([4]; IP BT2 3 mg/kg (Days 0 and 5)): 0 | Heart, severity grade ([4]; IP BT2 3 mg/kg (Days 0 and 5)): 0 | Kidney (left and right): inflammation, interstitial, severity grade ([4]; IP BT2 3 mg/kg (Days 0 and 5)): 0 | Kidney (left and right): inflammation, renal pelvis, severity grade ([4]; IP BT2 3 mg/kg (Days 0 and 5)): 0 | Liver: mineralisation, subcapsular, severity grade ([4]; IP BT2 3 mg/kg (Days 0 and 5)): 0 | Spleen, severity grade ([4]; IP BT2 3 mg/kg (Days 0 and 5)): 0 | Liver: inflammation, parenchymal, severity grade [4, 7]: 1 and 0 | Liver: inflammation, peritoneal, severity grade [4, 7]: 0 and 2 and 1 | Lung: osseous metaplasia, severity grade [4, 7]: 0 and 1 | Eye (left and right), severity grade ([4]; IP BT2 30 mg/kg (Days 0 and 5)): 0 | Heart, severity grade ([4]; IP BT2 30 mg/kg (Days 0 and 5)): 0 | Kidney (left and right): inflammation, interstitial, severity grade ([4]; IP BT2 30 mg/kg (Days 0 and 5)): 0 | Lung: osseous metaplasia, severity grade ([4]; IP BT2 30 mg/kg (Days 0 and 5)): 0 | Spleen, severity grade ([4]; IP BT2 30 mg/kg (Days 0 and 5)): 0 | Kidney (left and right): inflammation, renal pelvis, severity grade [4, 8]: 0 and 4 | Liver: inflammation, parenchymal, severity grade [4, 8]: 1 and 2 | Liver: inflammation, peritoneal, severity grade [4, 8]: 1 and 2 | Liver: mineralisation, subcapsular, severity grade [4, 8]: 0 and 1
